According to US12478624B2, “Heterocyclic derivatives, pharmaceutical compositions and their use in the treatment or amelioration of cancer” (Tolremo Therapeutics AG, priority 2019, dated 2025):
pEC50: −log10 of the molar value.

test system: A375 cells; experiment: Assay 1: A375 cells treated with S1152, S1008 and compound, immunofluorescence (sc-365823) signal; type: cell-based; conditions: 1 μM S1152 + 0.5 μM S1008, one day
Method: One thousand four hundred A375 cells were seeded in each well of a 384 well microplate. One day later they were treated with 1 μM S1152 (Selleckchem) in dimethyl sulfoxide, 0.5 μM S1008 (Selleckchem) and dose ranges of invention compounds for one day in Dulbecco's Modified Eagle's Medium supplemented with 10% fetal calf serum and 2 mM (2S)-2-amino-4-carbamoylbutanoic acid. Wells were incubated with 4% polyoxymethylene (Sigma Aldrich 158127) at ambient temperature. […] After one minute phosphate-buffered saline was replaced with 0.2% polyethylene glycol octylphenyl ether in phosphate-buffered saline. […] 1% aminoethanoic acid in phosphate-buffered saline was added for ten minutes at ambient temperature. […] After one hour at ambient temperature in the dark, signal in wells was measured with a Acumen Cellista. 3,8-Diamino-5-[3-(diethylmethylammonio)propyl]-6-phenylphenanthridinium diiodide-positive objects were defined in FL3 (565-600 nm) with a perimeter between 50-800 μm and a total intensity of 10000-1000000 FLU. Signal in FL2 (500-530 nm) was measured in defined objects. A normalized ratio of total In FL2 over total In FL3 staining was log transformed. A non-linear regression (variable slope, 4 parameters) was used to calculate EC50 values using GraphPad Prism (Version 7.0d).
In an alternative procedure, assay 1 has been affected by changing the counteratain. […] Cells were incubated with 0.5 μg/ml 2-(4-Amidinophenyl)-6-indolecarbamidine dihydrochloride, 4′,6-Diamidino-2-phenylindole dihydrochloride (Sigma D9542) in phosphate-buffered saline for at least 30 minutes at ambient temperature in the dark. A Celigo Imager (Nexcelom) was used to acquire images in the blue and green channel. The blue channel was used as a mask to define the area for the green signal. The average integrated intensity of the green signal was normalized and a non-linear regression (variable slope, 4 parameter) was used to calculate the EC50 values using GraphPad Prism (Version 8.4)

Row | Compound | pEC50
1 | CC(=O)N1C[C@H](c2nc(Nc3ccc4c(=O)[nH]ccc4c3)cc(-c3cccnc3)n2)CC[C@@H]1C [Compound 00035, 6-((2-((3R,6S)-1-acetyl-6-methylpiperidin-3-yl)-6-(pyridin-3-yl)pyrimidin-4-yl)amino)isoquinolin-1(2H)-one] | > 6.70
2 | [2H]C([2H])([2H])[C@@H]1CC[C@H](c2nc(Nc3cncc(C)c3)cc(-c3cnccn3)n2)CN1C(C)=O [Compound 00011] | < 5.00
3 | CC(=O)N1C[C@@H](c2nc(Nc3cncc(C)c3)cc(-c3cnccn3)n2)CC[C@H]1C [Compound 00002, 1-((2R,5S)-2-methyl-5-(4-((5-methylpyridin-3-yl)amino)-6-(pyrazin-2-yl)pyrimidin-2-yl)piperidin-1-yl)ethan-1-one] | < 5.00
4 | COc1cncc(-c2cc(Nc3cccc(Cl)c3)nc([C@@H]3CC[C@H](C)N(C(C)=O)C3)n2)c1 (racemic) [Compound 00016, (+/−)-cis-1-(5-(4-((3-chlorophenyl)amino)-6-(5-methoxypyridin-3-yl)pyrimidin-2-yl)-2-methylpiperidin-1-yl)ethan-1-one] | > 6.70
5 | COc1cc(F)cc(Nc2cc(-c3cccnc3)nc([C@@H]3CC[C@H](C)N(C(C)=O)C3)n2)c1 [Compound 00031, 1-((2S,5R)-5-(4-((3-fluoro-5-methoxyphenyl)amino)-6-(pyridin-3-yl)pyrimidin-2-yl)-2-methylpiperidin-1-yl)ethan-1-one] | > 6.70
6 | CC(=O)N1C[C@H](c2nc(Nc3ccc4[nH]ccc4c3)cc(-c3cccnc3)n2)CC[C@@H]1C [Compound 00028, 1-((2S,5R)-5-(4-((1H-indol-5-yl)amino)-6-(pyridin-3-yl)pyrimidin-2-yl)-2-methylpiperidin-1-yl)ethan-1-one] | > 6.70
7 | CC(=O)N1C[C@H](c2nc(Nc3ccncc3)cc(-c3cccnc3)n2)CC[C@@H]1C [Compound 00006] | 6.00 to 6.70
8 | CC(=O)N1C[C@H](c2nc(Nc3cccc(F)c3)cc(-c3cccnc3)n2)CC[C@@H]1C(F)(F)F (racemic) [Compound 00023, (+/−)-c/s-1-(5-(4-((3-fluorophenyl)amino)-6-(pyridin-3-yl)pyrimidin-2-yl)-2-(trifluoromethyl)piperidin-1-yl)ethan-1-one] | 6.00 to 6.70
9 | CC(=O)N1C[C@H](c2nc(Nc3cccc(F)c3)cc(-c3cncc(O)c3)n2)CC[C@@H]1C (stereo in doubt) [Compound 00005] | > 6.70
10 | CC(=O)N1C[C@H](c2nc(Nc3ccc4nc(C)oc4c3)cc(-c3cccnc3)n2)CC[C@@H]1C [Compound 00037, 1-((2S,5R)-2-methyl-5-(4-((2-methylbenzo[d]oxazol-6-yl)amino)-6-(pyridin-3-yl)pyrimidin-2-yl)piperidin-1-yl)ethan-1-one] | 6.00 to 6.70
11 | [2H]C([2H])([2H])[C@H]1CC[C@@H](c2nc(Nc3cncc(C)c3)cc(-c3cnccn3)n2)CN1C(C)=O [Compound 000012] | > 6.70
12 | CC(=O)N1C[C@H](c2nc(Nc3ccc4c(c3)B(O)OC4)cc(-c3cccnc3)n2)CC[C@@H]1C [Compound 00034, 1-((2S,5R)-5-(4-((1-hydroxy-1,3-dihydrobenzo[c][1,2]oxaborol-6-yl)amino)-6-(pyridin-3-yl)pyrimidin-2-yl)-2-methylpiperidin-1-yl)ethan-1-one] | 6.00 to 6.70
13 | CC(=O)N1C[C@H](c2nc(Nc3cccc(C)c3)cc(-c3cccnc3)n2)CC[C@@H]1C(F)(F)F (racemic) [Compound 00022, (+/−)-c/s-1-(5-(4-(pyridin-3-yl)-6-(m-tolylamino)pyrimidin-2-yl)-2-(trifluoromethyl)piperidin-1-yl)ethan-1-one] | 6.00 to 6.70

Further lines, results first:

Row | pEC50 | Compound
14 | > 6.70 | COc1cncc(-c2cc(Nc3cccc(Cl)c3)nc([C@@H]3CC[C@H](C)N(C(C)=O)C3)n2)c1 [Compound 00074, 1-((2S,5R)-5-(4-((3-chlorophenyl)amino)-6-(5-methoxypyridin-3-yl)pyrimidin-2-yl)-2-methylpiperidin-1-yl)ethan-1-one]
15 | < 5.00 | CC(=O)N1C[C@H](c2nc(Nc3ccnc(C)c3)cc(-c3cncc(C(=O)N(C)C)c3)n2)CC[C@@H]1C [Compound 00109, 5-(2-((3R,6S)-1-acetyl-6-methylpiperidin-3-yl)-6-((2-methylpyridin-4-yl)amino)pyrimidin-4-yl)-N,N-dimethylnicotinamide]
16 | > 6.70 | CC(=O)N1C[C@H](c2nc(Nc3ccc4nccnc4c3)cc(-c3cccnc3)n2)CC[C@@H]1C [Compound 00120, 1-((2S,5R)-2-methyl-5-(4-(pyridin-3-yl)-6-(quinoxalin-6-ylamino)pyrimidin-2-yl)piperidin-1-yl)ethan-1-one]
17 | 6.00 to 6.70 | CC(=O)N1C[C@H](c2nc(Nc3cncc(C)c3)cc(-c3cncc(C4COC4)c3)n2)CC[C@@H]1C (racemic) [Compound 00100, (+/−)-c/s-1-(2-methyl-5-(4-((5-methylpyridin-3-yl)amino)-6-(5-(oxetan-3-yl)pyridin-3-yl)pyrimidin-2-yl)piperidin-1-yl)ethan-1-one]
18 | 6.00 to 6.70 | CC(=O)N1C[C@H](c2nc(Nc3ccc(O)cc3)cc(-c3cccnc3)n2)CC[C@@H]1C [Compound 00071, 1-((2S,5R)-5-(4-((4-hydroxyphenyl)amino)-6-(pyridin-3-yl)pyrimidin-2-yl)-2-methylpiperidin-1-yl)ethan-1-one]
19 | > 6.70 | CC(=O)N1C[C@H](c2nc(Nc3cncc(C(F)F)c3)cc(-c3cnccn3)n2)CC[C@@H]1C [Compound 00129, 1-((2S,5R)-5-(4-((5-(difluoromethyl)pyridin-3-yl)amino)-6-(pyrazin-2-yl)pyrimidin-2-yl)-2-methylpiperidin-1-yl)ethan-1-one]
20 | > 6.70 | CC(=O)N1C[C@H](c2nc(Nc3cc(F)cc(-c4nnco4)c3)cc(-c3cccnc3)n2)CC[C@@H]1C [Compound 00166, 1-((2S,5R)-5-(4-((3-fluoro-5-(1,3,4-oxadiazol-2-yl)phenyl)amino)-6-(pyridin-3-yl)pyrimidin-2-yl)-2-methylpiperidin-1-yl)ethan-1-one]
21 | > 6.70 | CC(=O)N1C[C@H](c2nc(Nc3cccc(N4CCCC4=O)c3)cc(-c3cccnc3)n2)CC[C@@H]1C [Compound 00048, 1-(3-((2-((3R,6S)-1-acetyl-6-methylpiperidin-3-yl)-6-(pyridin-3-yl)pyrimidin-4-yl)amino)phenyl)pyrrolidin-2-one]

same assay, conditions: Homo sapiens, A-375, 24 h, 1 μM S1152 + 0.5 μM S1008, one day

Row | Compound | pEC50
22 | CC(=O)N1C[C@H](c2nc(Nc3cccc(F)c3)cc(-c3cccnc3)n2)CC[C@@H]1C(F)F (racemic) [Compound 00025, (+/−)-c/s-1-(2-(difluoromethyl)-5-(4-((3-fluorophenyl)amino)-6-(pyridin-3-yl)pyrimidin-2-yl)piperidin-1-yl)ethan-1-one] | 5.00 to 6.00
23 | CC[C@H]1CC[C@@H](c2nc(Nc3cccc(F)c3)cc(-c3cccnc3)n2)CN1C(C)=O (racemic) [Compound 00020, (+/−)-c/s-1-(2-ethyl-5-(4-((3-fluorophenyl)amino)-6-(pyridin-3-yl)pyrimidin-2-yl)piperidin-1-yl)ethan-1-one] | 5.00 to 6.00
24 | CC(=O)N1C[C@H](c2nc(Nc3cccc(F)c3)cc(-c3cccnc3)n2)CC[C@H]1C(F)F (racemic) [Compound 00026, (+/−)-frans-1-(2-(difluoromethyl)-5-(4-((3-fluorophenyl)amino)-6-(pyridin-3-yl)pyrimidin-2-yl)piperidin-1-yl)ethan-1-one] | < 5.00
25 | COc1cncc(-c2cc(Nc3cccc(Cl)c3)nc([C@@H]3CC[C@@H](C)N(C(C)=O)C3)n2)c1 (racemic) [Compound 00017, (+/−)-trans-1-(5-(4-((3-chlorophenyl)amino)-6-(5-methoxypyridin-3-yl)pyrimidin-2-yl)-2-methylpiperidin-1-yl)ethan-1-one] | 5.00 to 6.00
26 | CC[C@@H]1CC[C@@H](c2nc(Nc3cccc(C)c3)cc(-c3cccnc3)n2)CN1C(C)=O (racemic) [Compound 00019, (+/−)-frans-1-(2-ethyl-5-(4-(pyridin-3-yl)-6-(m-tolylamino)pyrimidin-2-yl)piperidin-1-yl)ethan-1-one] | < 5.00
27 | CC[C@H]1CC[C@@H](c2nc(Nc3cccc(C)c3)cc(-c3cccnc3)n2)CN1C(C)=O (racemic) [Compound 00018, (+/−)-cis-1-(2-ethyl-5-(4-(pyridin-3-yl)-6-(m-tolylamino)pyrimidin-2-yl)piperidin-1-yl)ethan-1-one] | 5.00 to 6.00

The remaining lines, values ahead:

Row | pEC50 | Compound
28 | 5.00 to 6.00 | CC(=O)N1C[C@H](c2nc(Nc3cncc(C)c3)cc(-c3cncnc3)n2)CC[C@@H]1C (racemic) [Compound 00097, (+/−)-c/s-1-(2-methyl-5-(6-((5-methylpyridin-3-yl)amino)-[4,5′-bipyrimidin]-2-yl)piperidin-1-yl)ethan-1-one]
29 | < 5.00 | COc1cncc(-c2cc(Nc3cncc(C)c3)nc([C@H]3CC[C@H](C)N(C(C)=O)C3)n2)c1 [Compound 00133, 1-((2S,5S)-5-(4-(5-methoxypyridin-3-yl)-6-((5-methylpyridin-3-yl)amino)pyrimidin-2-yl)-2-methylpiperidin-1-yl)ethan-1-one]
